# Laboratory results published in patent publication US20130303373A1, “USE OF A COMPOSITION FOR THE INCREASE OF CROP YIELD” (GLOBACHEM, priority 2010, published 2013).
# Key:
# [1] = tested on: mature apple trees of the variety Jonagold, (mutant Jonagored); experiment: Yield increase with apple (fruit set and fruit size after spraying); type: in vivo
# Protocol: This experiment was performed on mature apple trees of the variety Jonagold, (mutant Jonagored). The sprayings were performed with an atomizer, each time applying an amount of 300 liter of water per hectare.
# S-abscisic acid (ABA) was applied alone as well as in combination with glutamine. The applications were started around the end of flowering and were repeated every 10 to 14 days. ABA was first applied in two consecutive treatments, each time using a concentration of 3.3 ppm wt, and thus in a dosing of 1.0 g/ha. The composition with glutamine was applied until the end of the growing season, and with a concentration of 50 ppm wt, and thus in a dosing of 15 g/ha. ABA was also in this test applied only twice, on April 24 and May 7. The applications of glutamine were started around the end of flowering and were repeated every 7 to 14 days, depending on the weather conditions. In total there were 7 treatments, more precisely on April 24, May 7, May 14, May 20, June 9, June 16 and June 24. Immediately after the treatments, on June 25, also the average fruit diameter was determined.
# winter wheat = experiment: Yield increase with wheat (ear and grain parameters); type: in vivo
# Protocol: This experiment was performed on winter wheat. ABA was applied to the winter wheat in two different doses, respectively 2 and 4 gram/hectare. The dose of 2 gram was repeated in combination with 5 g/ha of histidine.
# The length of the ears (expressed in mm), the number of filled spikelets, the average number of grains counted per 50 ears, and as a quality parameter also the kernel weight of 1000 […] (“1000 kernel wt”) were determined.
compound,measurement,setting,value
"CC1=CC(=O)CC(C)(C)[C@@]1(O)/C=C/C(C)=C/C(=O)O [ABA, S-abscisic acid]",Fruit diameter (mm) on June 25,"[1]; ABA 2 treatments at 1.0 g/ha, glutamine 7 treatments at 15 g/ha, measured June 25",43.8 mm
same,Nr of fruits per cluster,"[1]; ABA 2 treatments at 3.3 ppm wt (1.0 g/ha), glutamine 7 treatments at 50 ppm wt (15 g/ha), 300 l water/ha",0.80
same,1000 kernel wt (gram),winter wheat; ABA 2 g/ha,43.6 gram
same,Ear Length (mm),winter wheat; ABA 2 g/ha,75 mm
same,Nr. filled spikelets,winter wheat; ABA 2 g/ha,9.9
same,Nr. grains/50 ears,winter wheat; ABA 2 g/ha,72.4
same,1000 kernel wt (gram),winter wheat; ABA 4 g/ha,44.8 gram
same,Ear Length (mm),winter wheat; ABA 4 g/ha,78 mm
same,Nr. filled spikelets,winter wheat; ABA 4 g/ha,10.2
same,Nr. grains/50 ears,winter wheat; ABA 4 g/ha,84.7
